For orientation: IC50 means the concentration at which inhibition is half-maximal. A higher IC50 goes with weaker potency.

The assay concerns the target T1, MAGL (Homo sapiens, UniProt Q99685).
T1 sequence (Q99685 1-303): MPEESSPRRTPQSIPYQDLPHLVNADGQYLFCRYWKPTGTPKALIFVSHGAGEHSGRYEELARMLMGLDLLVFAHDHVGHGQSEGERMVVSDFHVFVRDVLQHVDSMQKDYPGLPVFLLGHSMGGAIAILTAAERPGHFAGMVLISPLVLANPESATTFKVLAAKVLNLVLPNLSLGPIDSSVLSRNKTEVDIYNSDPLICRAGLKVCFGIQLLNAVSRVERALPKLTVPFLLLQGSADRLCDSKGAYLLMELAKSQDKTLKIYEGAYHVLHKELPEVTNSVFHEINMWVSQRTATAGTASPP
The assay is described as follows: 2-AG assay: MAGL inhibitory activity by hydrolysis of 2-arachidonoylglycerol to arachidonic acid, mass spectrometry. Type of assay: biochemical. As to conditions: 2-AG assay (values marked [a]). As for the experimental part: Alternatively, compounds were profiled for MAGL inhibitory activity by determining the enzymatic activity by following the hydrolysis of the natural substrate, 2-arachidonoylglycerol, resulting in arachidonic acid, which can be followed by mass spectrometry. This assay is hereinafter abbreviated “2-AG assay”.
The 2-AG assay was carried out in 384 well assay plates (PP, Greiner Cat #784201) in a total volume of 20 μL. Compound dilutions were made in 100% DMSO (VWR Chemicals 23500.297) in a polypropylene plate in 3-fold dilution steps to give a final concentration range in the assay from 12.5 μM to […]. 0.25 μL compound dilutions (100% DMSO) were added to 9 μL MAGL in assay buffer (50 mM TRIS (GIBCO, 15567-027), 1 mM EDTA (Fluka, 03690-100 ml), 0.01% (v/v) Tween. After shaking, the plate was incubated for 15 min at RT. To start the reaction, 10 μL 2-arachidonoylglycerol in assay buffer was added. The final concentrations in the assay was […] and 8 μM 2-arachidonoylglyerol. After shaking and 30 min incubation at RT, the reaction was quenched by the addition of 40 μL of acetonitrile containing 4 μM of d8-arachidonic acid. The amount of arachidonic acid was traced by an online SPE system (Agilent Rapidfire) coupled to a triple quadrupole mass spectrometer (Agilent 6460). A C18 SPE cartridge (G9205A) was used in an acetonitrile/water liquid setup. The mass spectrometer was operated in negative electrospray mode following the mass transitions 303.1→259.1 for arachidonic acid and 311.1→267.0 for d8-arachidonic acid. The activity of the compounds was calculated based on the ratio of intensities [arachidonic acid/d8-arachidonic acid].

In turn, `COc1cc(C(c2ccccc2)C2CCN(C(=O)c3ccc4c(c3)NC(=O)CO4)CC2)ccn1` (single isomer, unassigned) [Example 137, 6-[4-[(R or S)-(2-Methoxy-4-pyridyl)-phenyl-methyl]piperidine-1-carbonyl]-4H-1,4-benzoxazin-3-one] returned an IC50 of 0.24 nM.
On to `COc1cc(C(c2ccccc2)C2CCN(C(=O)c3ccc4c(c3)NC(=O)CO4)CC2)ccc1OCCF` (single isomer, unassigned) [Example 138, 6-[4-[(S or R)-[4-(2-Fluoroethoxy)-3-methoxy-phenyl]-phenyl-methyl]piperidine-1-carbonyl]-4H-1,4-benzoxazin-3-one], for which the IC50 turned out to be 9.41 nM.
`COc1cc(C(c2ccccc2)C2CCN(C(=O)c3ccc4c(c3)NC(=O)CO4)CC2)ccc1OCCF` (single isomer, unassigned) [Example 139, 6-[4-[(R or S)-[4-(2-Fluoroethoxy)-3-methoxy-phenyl]-phenyl-methyl]piperidine-1-carbonyl]-4H-1,4-benzoxazin-3-one] displayed an IC50 of 0.17 nM.
`Cn1cc(C(c2ccccc2)C2CCN(C(=O)c3ccc4c(c3)NC(=O)CO4)CC2)cn1` (single isomer, unassigned) [Example 140, 6-[4-[(S or R)-(1-Methylpyrazol-4-yl)-phenyl-methyl]piperidine-1-carbonyl]-4H-1,4-benzoxazin-3-one] came in with an IC50 of 0.62 nM.
As for `Cn1cc(C(c2ccccc2)C2CCN(C(=O)c3ccc4c(c3)NC(=O)CO4)CC2)cn1` (single isomer, unassigned) [Example 141, 6-[4-[(R or S)-(1-Methylpyrazol-4-yl)-phenyl-methyl]piperidine-1-carbonyl]-4H-1,4-benzoxazin-3-one], the figure is 6.68 nM; as for `Cn1ccc(C(c2ccccc2)C2CCN(C(=O)c3ccc4c(c3)NC(=O)CO4)CC2)cc1=O` (single isomer, unassigned) [Example 142, 6-[4-[(S or R)-(1-Methyl-2-oxo-4-pyridyl)-phenyl-methyl]piperidine-1-carbonyl]-4H-1,4-benzoxazin-3-one], 0.66 nM; as for `Cn1ccc(C(c2ccccc2)C2CCN(C(=O)c3ccc4c(c3)NC(=O)CO4)CC2)cc1=O` (single isomer, unassigned) [Example 143, 6-[4-[(R or S)-(1-Methyl-2-oxo-4-pyridyl)-phenyl-methyl]piperidine-1-carbonyl]-4H-1,4-benzoxazin-3-one], 79.3 nM.
As for `O=C1COc2ccc(C(=O)N3CC(C(c4ccccc4)c4ccccc4)C3)cc2N1` [Example 124, 6-(3-Benzhydrylazetidine-1-carbonyl)-4H-1,4-benzoxazin-3-one], the figure is 258 nM.
The value for `O=C1COc2ccc(C(=O)N3CC(C(c4ccccc4)c4ccc(C(F)(F)F)cc4)C3)cc2N1` (stereo not shown) [Example 130, 6-[3-[Phenyl-[4-(trifluoromethyl)phenyl]methyl]azetidine-1-carbonyl]-4H-1,4-benzoxazin-3-one] was 85.3 nM.
For `COc1cccc(C(c2ccccc2)C2CN(C(=O)c3ccc4c(c3)NC(=O)CO4)C2)c1` (stereo not shown) [Example 131, 6-[3-[(3-Methoxyphenyl)-phenyl-methyl]azetidine-1-carbonyl]-4H-1,4-benzoxazin-3-one], 182 nM corresponded to half-maximal inhibition (IC50).

Source of the values: patent publication US11420961B2, “Heterocyclic compounds” (Hoffmann-La Roche Inc., priority 2017, dated 2022).
